Measured values: paper PMC10523748, “Cytotoxicity, acute and sub-chronic toxicities of the leaves of Bauhinia thonningii (Schumach.) Milne-Redh. (Caesalpiniaceae)” (BMC Complementary Medicine and Therapies, 2023)

Columns and labels:
HCT116 p53^−/− cells = assay: RRA cytotoxicity, HCT116 p53^−/−; details: for IC50: Homo sapiens, HCT-116, 72 h; for Degree of resistance: IC50 HCT116 p53^−/− versus HCT116 p53^+/+
Method: (§3) The sources of the HepG2 hepatocarcinoma [27], U87MG glioblastoma cells and its resistant epidermal growth factor receptor (EGFR) transfected subline, U87MG.ΔEGFR [28], HCT116 p53^+/+ colon adenocarcinoma cells and its resistant knock-out congener, HCT116 p53^−/− [29], MDA-MB-231-pcDNA3 breast adenocarcinoma cells and its multidrug-resistant breast cancer resistance protein (BCRP)-transfected MDA-MB-231-BCRP clone 23 subline [30] have also been described. […] These culture media were used as complete media with additional 10% fetal bovine serum and 1% penicillin/streptomycin (Invitrogen, Eggenstein, Germany).
(§4) Botanicals were tested in the concentration range of 0.63–80 µg/mL, the isolated compounds at 0.78—100 µM; the treated cells were incubated for 72 h; the fluorescence was measured at the excitation wavelength of 544 nm and at the emission wavelengths of 590 nm using Infinite M2000 Pro™ plate reader (Tecan, Crailsheim, Germany).

[1] = system: CEM/ADR5000 leukemia cells (P-gp-overexpressing); assay: RRA cytotoxicity, CEM/ADR5000; details: for IC50: Homo sapiens, ADR5000, 72 h; for Degree of resistance: IC50 CEM/ADR5000 versus CCRF-CEM
Text: These culture media were used as complete media with additional 10% fetal bovine serum and 1% penicillin/streptomycin (Invitrogen, Eggenstein, Germany).

[2] = system: 9 tested cancer cell lines; assay: RRA cytotoxicity, whole panel of cancer cell lines; details: Homo sapiens, 72 h, read-out: IC50 against all the investigated cancer cell lines
normal AML12 hepatocytes = assay: RRA cytotoxicity, normal AML12 hepatocytes; details: for Selectivity index: IC50 in AML12 versus IC50 in HepG2; for IC50: Mus musculus, AML12, 72 h
U87MG.ΔEGFR cells = assay: RRA cytotoxicity, U87MG.ΔEGFR; details: for IC50: Homo sapiens, 72 h; for Degree of resistance: IC50 U87MG.ΔEGFR versus U87MG
Method: as §3, §4

[3] = system: HCT116 p53^+/+ colon adenocarcinoma cells; assay: RRA cytotoxicity, HCT116 p53^+/+; details: Homo sapiens, HCT-116, 72 h
Method: (§5) The sources of the HepG2 hepatocarcinoma [27], U87MG glioblastoma cells and its resistant epidermal growth factor receptor (EGFR) transfected subline, U87MG.ΔEGFR [28], HCT116 p53^+/+ colon adenocarcinoma cells and its resistant knock-out congener, HCT116 p53^−/− [29], MDA-MB-231-pcDNA3 breast adenocarcinoma cells and its multidrug-resistant breast cancer resistance protein (BCRP)-transfected MDA-MB-231-BCRP clone 23 subline [30] have also been described. To compare the activity of samples in HepG2 cells, the AML12 hepatocytes were used [31]. […] These culture media were used as complete media with additional 10% fetal bovine serum and 1% penicillin/streptomycin (Invitrogen, Eggenstein, Germany).
as §4

MDA-MB-231-BCRP cells = assay: RRA cytotoxicity, MDA-MB-231-BCRP; details: for IC50: Homo sapiens, MDA-MB-231/BCRP, 72 h; for Degree of resistance: IC50 MDA-MB-231-BCRP versus MDA-MB-231-pcDNA
Method: as §3, §4

CCRF-CEM leukemia cells = assay: Resazurin reduction assay (RRA) cytotoxicity, CCRF-CEM; details: Homo sapiens, 72 h
[4] = system: HepG2 hepatocarcinoma cells; assay: RRA cytotoxicity, HepG2; details: Homo sapiens, HepG2, 72 h
Method: as §5, §4

U87MG glioblastoma cells = assay: RRA cytotoxicity, U87MG; details: Homo sapiens, U-87 MG, 72 h
Method: as §5, §4

[5] = system: MDA-MB-231-pcDNA breast adenocarcinoma cells; assay: RRA cytotoxicity, MDA-MB-231-pcDNA; details: Homo sapiens, 72 h
Method: as §5, §4

[6] = system: reactive oxygen species (ROS) production in CCRF-CEM cells; assay: ROS production, H2DCFH-DA staining and flow cytometry; format: cell-based, human; details: 24 h
Method: (§1) The treated cells (1 mL; 1 × 10^6 cells) were incubated for 24 h under the standard cell culture condition. Cells were further stained for 30 min with 10 µL of staining solution ([…] or H2DCFH-DA solution for ROS evaluation) according to the manufacturer’s protocol. Using the LSRFortessa FACS analyzer (Becton–Dickinson, Heidelberg, Germany), the amount of 1 × 10^4 cells was further measured as described earlier.

[7] = system: caspase 8 in CCRF-CEM cells; assay: Caspase-Glo 8 assay; format: cell-based, human; details: 6 h, versus untreated cells
Method: (§2) The amount of the treated cells was 1.5 × 10^4 cells for the caspase 3/7 assay or 3 × 10^4 cells for the caspase 8 and caspase 9 assays in 100 µL. The treated cells were then incubated for 6 h under the standard cell culture conditions as described above. Subsequently, the activity of caspases was detected by a spectrophotometry measurement of luminescence using 100 µL caspase solution from the Caspase-Glo 3/7, 8, and 9 Assay kits (Promega, Mannheim, Germany) with an Infinite M2000 ProTM plate reader (Tecan).

CCRF-CEM cells = assay: Apoptosis, annexin V/PI staining and flow cytometry; format: cell-based, human; details: 24 h, non-treated cells 0.4%
Method: The concentration of samples used and CCRF-CEM cells were those as reported above under the standard cell culture conditions. To detect the apoptotic cells, the fluorescein isothiocyanate (FITC)-conjugated annexin V/PI assay kit (eBioscience™ Annexin V; Invitrogen, San Diego, USA) was applied to treated cells after 24 h incubation followed by the measurements with BD Accury C6 Flow Cytometer (BD Biosciences). The assays were performed separately three times and in triplicate.

[8] = system: mitochondrial membrane potential (MMP) of CCRF-CEM cells; assay: MMP analysis, JC-1 staining and flow cytometry; format: cell-based, human; details: 24 h
Method: as §1

[9] = system: caspases 3/7 in CCRF-CEM cells; assay: Caspase-Glo 3/7 assay; format: cell-based, human; details: 6 h, versus untreated cells
Method: as §2

[10] = system: caspase 9 in CCRF-CEM cells; assay: Caspase-Glo 9 assay; format: cell-based, human; details: 6 h, versus untreated cells
Method: as §2

Row | Structure (SMILES) | IC50 (HCT116 p53^−/− cells) [µM] | Degree of resistance (HCT116 p53^−/− cells) | IC50 [1] [µM] | Degree of resistance [1] | IC50 [2] [µM] | Selectivity index (normal AML12 hepatocytes) | IC50 (normal AML12 hepatocytes) [µM] | melting point [°C] | IC50 (U87MG.ΔEGFR cells) [µM] | Degree of resistance (U87MG.ΔEGFR cells) | IC50 [3] [µM] | IC50 (MDA-MB-231-BCRP cells) [µM] | Degree of resistance (MDA-MB-231-BCRP cells) | IC50 (CCRF-CEM leukemia cells) [µM] | IC50 [4] [µM] | IC50 (U87MG glioblastoma cells) [µM] | IC50 [5] [µM] | other results
1 | COc1ccc(-c2oc3cc(O)c(C)c(O)c3c(=O)c2OC)cc1O [Compound 1, 6-C-methylquercetin-3, 4'-dimethyl ether] | 10.8 ± 1.11 | 0.51 | 10.3 ± 0.44 | 0.72 | < 50 | > 2.13 | > 50 | 195 to 197 | 26.6 ± 1.13 | 0.98 | 21.2 ± 2.45 | 17 ± 2.05 | 1.51 | 14.2 ± 0.94 | 23.5 ± 0.59 | 27.2 ± 3.07 | 11.3 ± 1.04 | 
2 | COc1c(-c2ccc(O)cc2)oc2c(C)c(O)c(C)c(O)c2c1=O [Compound 8, 6,8-C-dimethylkaempferol-3-methyl ether] | 3.41 ± 0.35 | 0.36 | 2.42 ± 0.3 | 0.80 |  |  | > 50 | 250 to 253 | 15.4 ± 0.64 | 1.92 | 9.59 ± 0.84 | 8.26 ± 0.66 | 3.53 | 3.03 ± 0.37 | 19.4 ± 2.07 | 8.01 ± 0.84 | 2.34 ± 0.31 | Effect on ROS production [6]: enhanced higher ROS production; ROS level ([6]; 2 × IC50, untreated cells 0.6%): 24.50%; Increase of caspase 8 activity [7]: 3.63 fold; Early apoptosis, annexin V (+)/PI (-) cells, highest proportion (CCRF-CEM cells): ≤ 67.3%; Effect on the integrity of the MMP [8]: strongly altered the integrity of the MMP; Q1, cells with undamaged (intact) MMP ([8]; 2 × IC50, untreated control 92.6%): 23.0%; Increase of caspases 3/7 activity [9]: 4.41 fold; Increase of caspase 9 activity [10]: 4.22 fold
3 | COc1c(C)c(O)c2c(=O)c(OC)c(-c3ccc(O)cc3)oc2c1C [Compound 7, 6,8-C-dimethylkaempferol 3,7-dimethyl ether] | 9.71 ± 0.76 | 0.50 | 2.86 ± 0.17 | 0.43 |  | > 1.63 | > 50 | 285 to 287 | 18 ± 2.21 | 0.93 | 19.5 ± 2.05 | 8.15 ± 0.73 | 4.22 | 6.61 ± 0.41 | 30.7 ± 1.86 | 19.3 ± 1.62 | 1.93 ± 0.19 | 
4 | C[C@@H]1OC(Oc2c(-c3ccc(O)c(O)c3)oc3cc(O)cc(O)c3c2=O)[C@H](O)[C@H](O)[C@H]1O (stereo partly drawn) [Compound 5, quercetin-3-O-L-rhamnopyranoside] | 13.2 ± 1.14 | 0.73 | 7.21 ± 0.61 | 0.83 |  | > 1.77 | > 50 |  | 31.1 ± 1.85 | 1.31 | 17.9 ± 1.26 | 16.8 ± 1.26 | 2.32 | 8.73 ± 0.62 | 28.3 ± 1.74 | 23.7 ± 1.77 | 7.24 ± 0.47 | 
5 | O=c1c(O[C@@H]2O[C@H](CO)[C@@H](O)[C@H](O)[C@H]2O)c(-c2ccc(O)c(O)c2)oc2cc(O)cc(O)c12 [Compound 6, quercetin-3-O-β-glucopyranoside] | 12.5 ± 1.36 | 0.57 | 7.88 ± 0.58 | 0.90 |  | above 2 | > 50 |  | 33.5 ± 2.79 | 1.75 | 21.8 ± 2.11 | 12.3 ± 0.97 | 1.76 | 9.12 ± 0.59 | 21.5 ± 2.25 | 19 ± 2.01 | 6.99 ± 0.28 | 
6 | COc1cc(-c2oc3cc(OC)c(C)c(O)c3c(=O)c2OC)ccc1O [Compound 3, 6-C-methylquercetin 3,7,3'-trimethyl ether] | 17.2 ± 0.83 | 0.87 | 10.2 ± 0.3 | 0.57 | < 50 |  | > 50 | 185 to 187 | 19.8 ± 0.96 | 0.64 | 19.8 ± 0.78 | 13.2 ± 1.48 | 1.20 | 17.9 ± 1.67 | 23.6 ± 3.23 | 31 ± 2.65 | 11 ± 0.58 | 
